Patent US7312225B2, “Macrocyclic pyrimidines, their production and use as pharmaceutical agents” (Bayer Schering Pharma AG, priority 2002, dated 2007)
Where a name gives a salt, the structure may show the parent alone. Read-outs that look alike come from different tables or passages of the source.

Experiments:
CDK2/CycE = target: T1, CDK2/CycE (Homo sapiens, UniProt P24941); experiment: CDK2/CycE kinase assay; assay type: biochemical
T1 construct: GST; purchased ProQinase GmbH, Freiburg; host or cells: baculovirus-infected insect cells (Sf9)
Description: Recombinant CDK2- and CycE-GST-fusion proteins, purified from baculovirus-infected insect cells (Sf9), were purchased from ProQinase GmbH, Freiburg. Histone IIIS, which was used as a kinase substrate, was purchased from the Sigma Company.
The reaction was stopped by adding EDTA solution (250 mmol, pH 8.0, 14 μl/measuring point).
From each reaction batch, 10 μl was applied to P30 filter strips (Wallac Company), and non-incorporated ^33P-ATP was removed by subjecting the filter strips to three washing cycles for 10 minutes each in 0.5% phosphoric acid. After the filter strips were dried for one hour at 70° C., the filter strips were covered with scintillator strips (MeltiLex™ A, Wallac Company) and baked for one hour at 90° C. The amount of incorporated ^33P (substrate phosphorylation) was determined by scintillation measurement in a gamma-radiation measuring device (Wallac).

CDK1/CycB = target: T2, CDK1/CycB (Homo sapiens, UniProt P06493); experiment: CDK1/CycB kinase assay; assay type: biochemical; conditions: Table I
T2 construct: GST; purchased ProQinase GmbH, Freiburg; host or cells: baculovirus-infected insect cells (Sf9)
T2 sequence (P06493 whole entry): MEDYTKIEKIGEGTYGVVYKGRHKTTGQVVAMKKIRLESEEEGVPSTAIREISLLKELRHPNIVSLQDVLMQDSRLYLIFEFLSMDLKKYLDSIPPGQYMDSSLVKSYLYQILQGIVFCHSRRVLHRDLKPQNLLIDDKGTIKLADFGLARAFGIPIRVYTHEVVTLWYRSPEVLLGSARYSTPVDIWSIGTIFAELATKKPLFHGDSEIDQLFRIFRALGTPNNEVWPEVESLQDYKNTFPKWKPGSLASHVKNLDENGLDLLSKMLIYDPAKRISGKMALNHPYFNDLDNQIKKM
T2 sequence (P14635 whole entry partner): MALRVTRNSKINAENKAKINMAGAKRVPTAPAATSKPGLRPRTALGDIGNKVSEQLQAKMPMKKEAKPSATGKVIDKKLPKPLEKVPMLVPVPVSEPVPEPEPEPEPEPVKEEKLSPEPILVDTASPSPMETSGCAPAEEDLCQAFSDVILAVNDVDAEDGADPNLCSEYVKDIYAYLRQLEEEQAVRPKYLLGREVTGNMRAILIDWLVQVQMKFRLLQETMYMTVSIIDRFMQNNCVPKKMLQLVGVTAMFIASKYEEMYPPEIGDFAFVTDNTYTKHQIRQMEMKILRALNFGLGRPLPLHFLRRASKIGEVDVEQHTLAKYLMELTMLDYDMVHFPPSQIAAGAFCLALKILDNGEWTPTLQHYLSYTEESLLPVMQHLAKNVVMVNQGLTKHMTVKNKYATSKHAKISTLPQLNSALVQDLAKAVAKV
Description: Recombinant CDK1- and CycB-GST fusion proteins, purified from baculovirus-infected insect cells (Sf9), were purchased from ProQinase GmbH, Freiburg. Histone IIIS, which was used as a kinase substrate, is commercially available from the Sigma Company.
CDK1/CycB (200 ng/measuring point) was incubated for 15 minutes at 22° C. in the presence of various concentrations of test substances (0 μm, as well as within the range of 0.01-100 μm) in assay buffer [50 mmol of tris/HCl, pH 8.0, 10 mmol of MgCl2, 0.1 mmol of Na ortho-vanadate, 1.0 mmol of dithiothreitol, 0.5 μm of adenosine triphosphate (ATP), 10 μg/measuring point of histone IIIS, 0.2 μCi/measuring point of 33P-gamma ATP, 0.05% NP40, 12.5% dimethyl sulfoxide]. The reaction was stopped by adding EDTA solution (250 mmol, pH 8.0, 14 μl/measuring point).
From each reaction batch, 10 μl was applied to P30 filter strips (Wallac Company), and non-incorporated 33P-ATP was removed by three washing cycles of the filter strips for 10 minutes each in 0.5% phosphoric acid. After the filter strips were dried for 1 hour at 70° C., the filter strips were covered with scintillator strips (MeltiLex™ A, Wallac Company) and baked for one hour at 90° C. The amount of incorporated 33P (substrate phosphorylation) was determined by scintillation measurement in a gamma-radiation measuring device (Wallac).

[1] = target: T3, VEGF Receptor tyrosine kinase-2 (Homo sapiens, UniProt P35968); experiment: VEGF Rezeptor-2 kinase assay; assay type: biochemical; conditions: Table I; read-out: VEGF-R2 IC50
T3 construct: GST; made in house; host or cells: baculovirus-infected insect cells (Sf9)
T3 sequence (P35968 20-1356): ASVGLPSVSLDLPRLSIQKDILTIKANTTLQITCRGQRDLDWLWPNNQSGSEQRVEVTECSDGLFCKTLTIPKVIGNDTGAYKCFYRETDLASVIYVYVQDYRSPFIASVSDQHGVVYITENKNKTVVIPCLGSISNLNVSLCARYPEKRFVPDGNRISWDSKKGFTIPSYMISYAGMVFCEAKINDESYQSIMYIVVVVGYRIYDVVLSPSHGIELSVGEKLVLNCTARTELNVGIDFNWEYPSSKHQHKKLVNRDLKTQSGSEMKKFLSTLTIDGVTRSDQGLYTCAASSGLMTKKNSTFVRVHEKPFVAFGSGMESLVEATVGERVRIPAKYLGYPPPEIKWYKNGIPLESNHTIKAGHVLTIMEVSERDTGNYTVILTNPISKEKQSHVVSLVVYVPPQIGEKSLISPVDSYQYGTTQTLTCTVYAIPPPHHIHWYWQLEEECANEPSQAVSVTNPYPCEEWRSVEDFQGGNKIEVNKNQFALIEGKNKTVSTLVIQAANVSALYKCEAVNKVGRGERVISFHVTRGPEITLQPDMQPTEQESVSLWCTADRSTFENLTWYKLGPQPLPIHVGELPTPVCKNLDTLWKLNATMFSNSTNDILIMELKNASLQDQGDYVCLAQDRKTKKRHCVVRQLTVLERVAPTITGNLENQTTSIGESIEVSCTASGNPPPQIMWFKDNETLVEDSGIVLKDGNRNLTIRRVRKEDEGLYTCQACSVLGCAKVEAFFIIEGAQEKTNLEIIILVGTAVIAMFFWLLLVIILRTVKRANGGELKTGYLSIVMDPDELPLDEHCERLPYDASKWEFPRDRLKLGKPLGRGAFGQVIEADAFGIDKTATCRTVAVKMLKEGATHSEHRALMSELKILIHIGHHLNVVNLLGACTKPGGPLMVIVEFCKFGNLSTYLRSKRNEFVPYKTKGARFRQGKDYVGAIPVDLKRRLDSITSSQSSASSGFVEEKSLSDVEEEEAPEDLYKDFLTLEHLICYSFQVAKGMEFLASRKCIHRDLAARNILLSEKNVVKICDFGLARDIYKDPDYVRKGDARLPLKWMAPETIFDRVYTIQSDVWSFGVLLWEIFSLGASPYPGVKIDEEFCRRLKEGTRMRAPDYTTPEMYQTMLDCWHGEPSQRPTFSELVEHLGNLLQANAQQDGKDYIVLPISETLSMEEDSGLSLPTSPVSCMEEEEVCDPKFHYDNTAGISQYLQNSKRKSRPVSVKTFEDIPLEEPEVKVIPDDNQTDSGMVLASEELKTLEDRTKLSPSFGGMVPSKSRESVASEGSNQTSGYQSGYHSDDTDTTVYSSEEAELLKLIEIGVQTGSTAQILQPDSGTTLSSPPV
Description: VEGF Rezeptor-2 Kinase Assay
Recombinant VEGF Receptor tyrosine kinase-2 was purified as GST-fusion protein from baculovirus-infected insect cells (Sf9). Poly-(Glu4Tyr), which was used as a kinase substrate, was purchased from the Sigma Company.
VEGF Receptor tyrosine kinase (90 ng/measuring point) was incubated for 10 minutes at 22° C. in the presence of various concentrations of test substances (0 μmol, as well as within the range of 0.001-30 μM) in 30 μl of assay buffer [40 mmol of Tris/HCl […], 10 mmol of MgCl2, 1 mmol of MnCl2, 3 μmol of Na orthovanadate, 1.0 mmol of dithiothreitol, 8 μmol of adenosine trisphosphate (ATP), 27 μg/measuring point of poly-(Glu4Tyr), 0.2 μCi/measuring point of ^33P-gamma ATP, 1% dimethyl sulfoxide]. The reaction was stopped by adding EDTA solution (250 mmol, pH 7.0, 10 μl/measuring point).
From each reaction batch, 10 μl was applied to P30 filter strips (Wallac Company), and non-incorporated 33P-ATP was removed by subjecting the filter strips to three washing cycles for 10 minutes each in 0.5% phosphoric acid. After the filter strips were dried for 1 hour at 70° C., the filter strips were covered with scintillator strips (MeltiLex™ A, Wallac Company) and baked on for 1 hour at 90° C. The amount of incorporated 33P (substrate phosphorylation) was determined by scintillation measurement in a gamma-radiation measuring device (Wallac).

MCF7 = experiment: Proliferation assay MCF7; assay type: cell-based; conditions: Homo sapiens, MCF7, 96 h, 4 days incubation, crystal violet
Description: (§1) Cultivated human tumor cells (MCF7, […] human breast cancer cells, relative to ATCC HTB22; NCI-H460, human non-small-cell lung cancer cells, ATCC HTB-177, HCT 116, human colon cancer cells, ATCC CCL-247; DU 145, hormone-independent human prostate cancer cells, ATCC HTB-81; MaTu-MDR, hormone-independent, multiple pharmaceutical agent-resistant human breast cancer cells, EPO-GmbH, Berlin) were flattened out at a density of about 5000 cells/measuring point, depending on growth rates of the respective cells in a 96-well multititer plate in 200 μl of the corresponding growth medium. After 24 hours, the cells of one plate (zero-point plate) were colored with crystal violet (see below), while the medium of the other plates was replaced by fresh culture medium (200 μl), to which the test substances were added at various concentrations (0 μmol, as well as in the range of 0.01-30 μmol; the final concentration of the solvent dimethyl sulfoxide was 0.5%). The cells were incubated for 4 days in the presence of test substances. The cell proliferation was determined by coloring the cells with crystal violet: the cells were fixed by adding 20 μl/measuring point of an 11% glutaric aldehyde solution for 15 minutes at room temperature. After three washing cycles of the fixed cells with water, the plates were dried at room temperature. The cells were colored by adding 100 μl/measuring point of a 0.1% crystal violet solution (pH was set at 3 by adding acetic acid). After three washing cycles of the colored cells with water, the plates were dried at room temperature. The dye was dissolved by adding 100 μl/measuring point of a 10% acetic acid solution. The extinction was determined by photometry at a wavelength of 595 nm. The change of cell growth, in percent, was calculated by standardization of the measured values to the extinction values of the zero-point plate (=0%) and the extinction of the untreated (0 μm) cells (=100%).

H460 = experiment: Proliferation assay H460; assay type: cell-based; conditions: Homo sapiens, NCI-H460, 96 h; Table II; 4 days incubation, crystal violet
Description: as §1

HCT116 = experiment: Proliferation assay HCT116; assay type: cell-based; conditions: Homo sapiens, HCT-116, 96 h; Table II; 4 days incubation, crystal violet
Description: as §1

DU145 = experiment: Proliferation assay DU145; assay type: cell-based; conditions: Homo sapiens, DU-145, 96 h; Table II; 4 days incubation, crystal violet
Description: as §1

MaTu-ADR = experiment: Proliferation assay MaTu-ADR; assay type: cell-based; conditions: Homo sapiens, 96 h; Table II; 4 days incubation, crystal violet; read-out: Proliferation IC50 MaTu-ADR
Description: as §1

[2] = Table I, read-out: CDK2/CycE IC50
[3] = Table II, read-out: Inhibition IC50 CDK2/CycE
[4] = Table II, read-out: Proliferation IC50 MCF7

Row | Structure (SMILES) | IC50 (CDK2/CycE; [2]) | IC50 (CDK1/CycB) | IC50 [1] | IC50 (MCF7; Table I, read-out: MCF7 IC50) | IC50 (CDK2/CycE; [3]) | IC50 (MCF7; [4]) | IC50 (H460) | IC50 (HCT116) | IC50 (DU145) | IC50 (MaTu-ADR)
1 | OCC1CCCOc2cccc(c2)Nc2ncc(Br)c(n2)N1 (stereo not drawn) [Example 14.18] | 30 nM | 80 nM | 370 nM | 2100 nM | – | – | – | – | – | –
2 | O=S1(=O)NCCCOc2nc(ncc2Br)Nc2cccc1c2 [Example 3.0, 1^5-Bromo-9-oxa-4-thia-2,5-diaza-1(2,4)-pyrimidina-3(1,3)-benzenacyclononaphane-4,4-dioxide] | 160 nM | 50 nM | 89 nM | 1600 nM | – | – | – | – | – | –
3 | O=S1(=O)NCCC(CO)Nc2nc(ncc2Br)Nc2cccc1c2 (single isomer, unassigned) [Example 1.3 (+) Enantiomer] | – | – | – | – | 23 nM | 900 nM | 2100 nM | 1400 nM | 4000 nM | 4000 nM
4 | Nc1cc2cc(c1)S(=O)(=O)NCCCNc1nc(ncc1Br)N2 [Example 1.4, 1^5-Bromo-4-thia-2,5,9-triaza-1(2,4)-pyrimidina-3(1,3)-benzenacyclononaphan-3^5-amine-4,4-dioxides] | – | – | 11 nM | 400 nM | – | 400 nM | 200 nM | < 100 nM | 700 nM | 100 nM
5 | O=S1(=O)NCCCCNc2nc(ncc2Br)Nc2csc1c2 [Example 14.10] | 65 nM | – | 190 nM | 1900 nM | – | 300 nM | 100 nM | 100 nM | 400 nM | –
6 | CCc1cnc2nc1NCCCCCNS(=O)(=O)c1cccc(c1)N2 [Example 14.2] | – | – | – | – | 5000 nM | – | – | – | – | –
7 | NS(=O)(=O)c1ccc2cc1OCCCCCNc1nc(ncc1Br)N2 [Example 14.11] | 2400 nM | 200 nM | – | 750 nM | 2400 nM | 750 nM | 900 nM | 700 nM | 900 nM | 1300 nM
8 | N#Cc1cnc2nc1NCCCNS(=O)(=O)c1cccc(c1)N2 [Example 5.0, 1^5-Cyano-4-thia-2,5,9-triaza-1(2,4)-pyrimidina-3(1,3)-benzenacyclononaphane 4,4-dioxide] | – | 300 nM | – | – | – | – | – | – | – | –
9 | O=[N+]([O-])c1cc2cc(c1)S(=O)(=O)NCCCNc1nc(ncc1Br)N2 [Example 1.5, 1^5-Bromo-3^5-nitro-4-thia-2,5,9-triaza-1(2,4)-pyrimidina-3(1,3)-benzenacyclononaphane-4,4-dioxide hydrochloride] | – | 28 nM | 69 nM | 900 nM | – | 900 nM | 600 nM | 400 nM | 1300 nM | 600 nM
10 | O=S1(=O)NCCCC[C@@H](CO)Nc2nc(ncc2Br)Nc2cccc1c2 [Example 14.4] | 250 nM | 1700 nM | – | 4000 nM | 2000 nM | – | – | – | – | –
11 | O=S1(=O)NCC(O)CNc2nc(ncc2Br)Nc2cccc1c2 (racemic) [Example 1.2, rac-1^5-Bromo-4-thia-2,5,9-triaza-1(2,4)-pyrimidina-3(1,3)-benzenacyclononaphan-7-ol-4,4-dioxide] | 510 nM | 40 nM | – | 2600 nM | – | – | – | – | – | –
12 | O=S1(=O)NCCC(CO)Nc2nc(ncc2Br)Nc2cccc1c2 (single isomer, unassigned) [1.3 (+) Enantiomer] | 23 nM | – | 69 nM | 900 nM | – | – | – | – | – | –
13 | O=S1(=O)NCCCCCNc2nc(ncc2Br)Nc2cccc1c2 [Example 1.0, 1^5-Bromo-4-thia-2,5,11-triaza-1(2,4)-pyrimidina-3(1,3)-benzenacycloundecaphane 4,4-dioxides] | 420 nM | 200 nM | – | 1100 nM | 420 nM | 1100 nM | 1800 nM | 1300 nM | 2000 nM | 700 nM
14 | O=S1(=O)NCCC(O)CNc2nc(ncc2Br)Nc2cccc1c2 (stereo not drawn) [Example 14.8] | – | 200 nM | – | – | – | – | – | – | – | –
15 | O=S1(=O)N[C@H]2CC[C@@H](CC2)Nc2nc(ncc2Br)Nc2cccc1c2 [Example 14.15] | 130 nM | 1500 nM | – | 1300 nM | 1500 nM | 1300 nM | 1200 nM | 1000 nM | 1200 nM | 1300 nM
16 | Brc1cnc2nc1NCCCCOc1cccc(c1)N2 [Example 7.1, 1^5-Bromo-4-oxa-2,9-diaza-1(2,4)-pyrimidina-3(1,3)-benzenacyclononaphane] | – | – | – | – | 2400 nM | 4000 nM | – | – | – | –
17 | Cc1ccc2cc1S(=O)(=O)NCCCNc1nc(ncc1Br)N2 [Example 14.16] | 4400 nM | 300 nM | – | > 10000 nM | – | – | – | – | – | –
18 | O=S1(=O)NCCCCNc2nc(ncc2Br)Nc2cccc1c2 [Example 14.6] | 320 nM | 90 nM | – | 700 nM | 320 nM | 700 nM | 700 nM | 500 nM | 1700 nM | 300 nM
19 | O=C1NCCCNc2nc(ncc2Br)Nc2cccc(c2)N1 [Example 10.0, 1^5-Bromo-2,4,6,10-tetraaza-1(2,4)-pyrimidina-3(1,3)-benzenacyclodecaphan-5-one] | 120 nM | 360 nM | – | 6000 nM | – | – | – | – | – | –
